Among the data in ChEMBL document CHEMBL3997780, “Facile synthesis and antiproliferative activity of 7H-benzo[7,8]chromeno[2,3-d]pyrimidin-8-amines” (Eur J Med Chem, 2017) are IC50 and Activity values, retold here.

Activity calls are given as the source filed them. No cut-off for these calls is given here.

The subject of one assay is HeLa. In words: Cytotoxicity against human HeLa cells assessed as decrease in cell viability by MTT assay. Format: functional, cell-based.
Assay [1] concerns MOLT-4. The experiment in a line: Cytotoxicity against human MOLT4 cells assessed as decrease in cell viability by MTT assay. Format: functional, cell-based.
The subject of assay [2] is A549. The experiment in a line: Cytotoxicity against human A549 cells assessed as decrease in cell viability by MTT assay. It counts as functional, cell-based. In general terms: Tetrazolium assays rely on reduction of a dye to a coloured formazan, in cell work by metabolically active cells.
Assay [3] relates to A549. In words: Induction of apoptosis in human A549 cells assessed as early apoptotic cells at IC50 after 24 hrs by annexin V-FITC/propidium iodide staining-based flow cytometric method (reference value: 0.93%). It counts as functional. A general note: In flow cytometry, cells or beads pass a laser one at a time.
Assay [4] has as its system A549. The experiment in a line: Induction of apoptosis in human A549 cells assessed as change in cell morphology at IC50 after 24 hrs by acridine orange/ethidium bromide staining-based fluorescence microscopic method. It counts as functional.
Assay [5] deals with A549. The experiment in a line: Induction of apoptosis in human A549 cells assessed as late apoptotic cells at IC50 after 24 hrs by annexin V-FITC/propidium iodide staining-based flow cytometric method (reference value: 0.06%). It counts as functional.
Assay [6] deals with MOLT-4. The experiment in a line: Induction of apoptosis in human MOLT4 cells assessed as change in cell morphology at IC50 after 24 hrs by acridine orange/ethidium bromide staining-based fluorescence microscopic method. It counts as functional.
The subject of assay [7] is A549. In words: Induction of apoptosis in human A549 cells assessed as necrotic cells at IC50 after 24 hrs by annexin V-FITC/propidium iodide staining-based flow cytometric method relative to control. Format: functional.
The subject of assay [8] is A549. In words: Induction of apoptosis in human A549 cells assessed as viable cells at IC50 after 24 hrs by annexin V-FITC/propidium iodide staining-based flow cytometric method (reference value: 99.01%). Format: functional.
For assay [9], the system named is MOLT-4. The experiment in a line: Induction of apoptosis in human MOLT4 cells assessed as necrotic cells at IC50 after 24 hrs by annexin V-FITC/propidium iodide staining-based flow cytometric method (reference value: 0.03%). It counts as functional.
Assay [10] relates to MOLT-4. In words: Induction of apoptosis in human MOLT4 cells assessed as viable cells at IC50 after 24 hrs by annexin V-FITC/propidium iodide staining-based flow cytometric method (reference value: 97.78%). It counts as functional.
The subject of assay [11] is MOLT-4. The experiment in a line: Induction of apoptosis in human MOLT4 cells assessed as late apoptotic cells at IC50 after 24 hrs by annexin V-FITC/propidium iodide staining-based flow cytometric method (reference value: 0.02%). Format: functional.
The subject of assay [12] is MOLT-4. The experiment in a line: Induction of apoptosis in human MOLT4 cells assessed as early apoptotic cells at IC50 after 24 hrs by annexin V-FITC/propidium iodide staining-based flow cytometric method (reference value: 2.18%). Format: functional.

Usually IC50 stands for the point on the concentration scale where inhibition reaches its midpoint. As for `COc1cc(C2c3ccc4ccccc4c3Oc3ncnc(Nc4ccccc4)c32)cc(OC)c1OC` (configuration not stated), the IC50 in the assay on HeLa was 20.7 µM; with MOLT-4 [1], 9.8 µM; in the assay on A549 [2], 18.6 µM.

As for `c1ccc(Nc2ncnc3c2C(c2ccccc2)c2ccc4ccccc4c2O3)cc1` (configuration not stated), the IC50 in the assay with HeLa turned out to be 6.4 µM; in the assay on MOLT-4 [1], 6.6 µM; in the assay with A549 [2], 12.5 µM.

For `COc1ccc(Nc2ncnc3c2C(c2ccccc2)c2ccc4ccccc4c2O3)c(OC)c1` (configuration not stated), the IC50 with HeLa came out at 15.9 µM; in the assay on MOLT-4 [1] it was 6.5 µM; in the assay with A549 [2] it was 10.9 µM.

As for `CCc1ccc(Nc2ncnc3c2C(c2ccccc2)c2ccc4ccccc4c2O3)cc1` (configuration not stated), the IC50 in the assay with HeLa came to 14.5 µM; in the assay on MOLT-4 [1] it was 17.6 µM; in the assay on A549 [2], 17.4 µM.

Regarding `COc1cc(C2c3ccc4ccccc4c3Oc3ncnc(NCc4ccccc4Cl)c32)cc(OC)c1OC` (configuration not stated), the IC50 in the assay on HeLa came to 33.2 µM; in the assay with MOLT-4 [1], 14.5 µM; with A549 [2] it was 22.2 µM.

Take `COc1cc(C2c3ccc4ccccc4c3Oc3ncnc(NCc4ccccc4)c32)cc(OC)c1OC` (configuration not stated): the IC50 is 44.6 µM with HeLa, 10.4 µM with MOLT-4 [1] and 26.5 µM with A549 [2].

As to `Brc1ccc(Nc2ncnc3c2C(c2ccccc2)c2ccc4ccccc4c2O3)cc1` (configuration not stated), the concentration for half-maximal inhibition (IC50) is 31.6 µM in the assay with HeLa, 29.4 µM with MOLT-4 [1] and > 100 µM in the assay with A549 [2].

Turning to `c1ccc(CCNc2ncnc3c2C(c2ccccc2)c2ccc4ccccc4c2O3)cc1` (configuration not stated), the IC50 in the assay with HeLa stood at 50.2 µM; in the assay with MOLT-4 [1], 16.9 µM; with A549 [2] it was 68.5 µM.

`COc1ccc(OC)c(C2c3ccc4ccccc4c3Oc3ncnc(Nc4ccc(Br)cc4)c32)c1` (configuration not stated): the IC50 in the assay on HeLa came to 16.7 µM; in the assay with MOLT-4 [1], 20.4 µM; in the assay with A549 [2] it was 26.8 µM.

On to `Fc1ccccc1Nc1ncnc2c1C(c1ccccc1)c1ccc3ccccc3c1O2` (configuration not stated), for which the Activity with A549 [3] is reported as 34.92%; with A549 [5], 2.72%; in the assay on A549 [7], 0.29%; in the assay with A549 [8] it was 62.07%. Besides, the concentration for half-maximal inhibition (IC50) worked out at 10.3 µM in the assay with HeLa, 12.8 µM in the assay with MOLT-4 [1] and 5.4 µM in the assay with A549 [2]. Moreover, the outcome in the assay with A549 [4] and in the assay with MOLT-4 [6] was Active.

As to `COc1ccc(CCNc2ncnc3c2C(c2ccccc2)c2ccc4ccccc4c2O3)c(OC)c1` (configuration not stated), the IC50 in the assay on HeLa was found to be 43.5 µM; in the assay on MOLT-4 [1], 14.5 µM; in the assay with A549 [2] it was 18.9 µM.

Turning to `Cc1ccc(Nc2ncnc3c2C(c2ccccc2)c2ccc4ccccc4c2O3)c(C)c1` (configuration not stated), the IC50 was 14.6 µM with HeLa, 8.9 µM with MOLT-4 [1] and 11.2 µM with A549 [2].

Consider `COc1ccc(OC)c(C2c3ccc4ccccc4c3Oc3ncnc(Nc4ccc(F)cc4)c32)c1` (configuration not stated), for which the results for the half-inhibitory concentration (IC50) in the assay with HeLa, in the assay on MOLT-4 [1] and in the assay with A549 [2] were 10.5 µM, 6.8 µM and 8.4 µM, respectively.

With `COc1ccc(OC)c(C2c3ccc4ccccc4c3Oc3ncnc(Nc4ccc(Cl)cc4)c32)c1` (configuration not stated), the values for the IC50 in the assay on HeLa, in the assay with MOLT-4 [1] and in the assay on A549 [2] were 15.9 µM, 7.4 µM and 14.8 µM, respectively.

`Clc1ccc(Nc2ncnc3c2C(c2ccccc2)c2ccc4ccccc4c2O3)cc1` (configuration not stated): the IC50 in the assay on HeLa came to 19.9 µM; in the assay with MOLT-4 [1], 16.4 µM; in the assay with A549 [2], 13.7 µM.

Turning to `COc1ccc(OC)c(C2c3ccc4ccccc4c3Oc3ncnc(Nc4ccccc4F)c32)c1` (configuration not stated), the results for the IC50 with HeLa, in the assay on MOLT-4 [1] and in the assay on A549 [2] were 6.9 µM, 5.2 µM and 6.3 µM, respectively. Also, the result with A549 [4] and in the assay with MOLT-4 [6] was Active. Also, the Activity in the assay with MOLT-4 [9] is 1.18%; with MOLT-4 [10], 8.18%; with MOLT-4 [11], 43.61%; in the assay with MOLT-4 [12], 47.03%.

Consider `c1ccc(CNc2ncnc3c2C(c2ccccc2)c2ccc4ccccc4c2O3)cc1` (configuration not stated), for which the results for the IC50 in the assay with HeLa, with MOLT-4 [1] and in the assay on A549 [2] were 5.9 µM, 12.7 µM and 10.9 µM, respectively.

For the compound `COc1ccc(Nc2ncnc3c2C(c2cc(OC)c(OC)c(OC)c2)c2ccc4ccccc4c2O3)cc1` (configuration not stated), the results for the half-maximal inhibitory concentration (IC50) with HeLa, with MOLT-4 [1] and in the assay with A549 [2] were > 100 µM, 33.5 µM and 46.5 µM, respectively.

As to `Clc1ccccc1CNc1ncnc2c1C(c1ccccc1)c1ccc3ccccc3c1O2` (configuration not stated), the concentration for half-maximal inhibition (IC50) with HeLa stood at 15.4 µM; in the assay with MOLT-4 [1], 11.7 µM; in the assay with A549 [2], 9.6 µM.

On to `COc1ccc(Nc2ncnc3c2C(c2cc(OC)ccc2OC)c2ccc4ccccc4c2O3)cc1` (configuration not stated), for which the values for the IC50 with HeLa, in the assay on MOLT-4 [1] and with A549 [2] were 10.6 µM, 6.9 µM and 7.2 µM, respectively.
